Test results as given in article PMC9176744 (Science Advances, 2022).
pIC50: −log10 of the molar value.

How the values were obtained:
DHS1^WT [1] = biological target: T1, DHS1^WT (Arabidopsis thaliana, UniProt P29976); assay: DHS enzyme assay; assay type: biochemical; details: for inhibition of DHS1 activity: screening of AAA-derived metabolites as potential inhibitors (Fig. 2D); for pIC50: recombinant DHS1^WT, varied effector concentrations
DHS2^WT [2] = biological target: T2, DHS2^WT (Arabidopsis thaliana, UniProt Q00218); assay: DHS enzyme assay; assay type: biochemical; details: for inhibition of DHS2 activity: screening of AAAs and AAA-derived metabolites as potential inhibitors (Fig. 2D); for pIC50: recombinant DHS2^WT, varied effector concentrations; for inhibition at 1000 µM: read-out: inhibition of DHS2
DHS2^A11 = assay: DHS enzyme assay, DHS2 with the sotaA11 mutation; details: for change in IC50 versus corresponding WT enzyme: DHS2^A11, the weakest sota allele; for inhibition of DHS2^A11 activity: concentration of up to 1 mM
DHS3 (DHS^WT isoform) [3] = assay: DHS enzyme assay; assay type: biochemical, Arabidopsis thaliana; details: for inhibition of DHS3 WT activity: all DHS^WT isoforms
[4] = test system: sota mutants (DHS enzymes); assay: DHS enzyme assay, sota mutant enzymes compared with corresponding WT enzymes; assay type: biochemical, Arabidopsis thaliana; details: nearly all of the sota mutants; maximum increase
[5] = test system: Arabidopsis plants (Col-0, sotaB4, sotaA4); assay: Plant growth on media containing the effector
DHS2^F1 = assay: DHS enzyme assay, DHS2 with the sotaF1 mutation; details: concentration of up to 1 mM
DHS2^A4 = assay: DHS enzyme assay, DHS2 with the sotaA4 mutation; details: for inhibition of DHS2^A4 activity: concentration of up to 1 mM; for inhibition of DHS2^A4: similar IC50 values to DHS2^WT
DHS2^WT [6] = biological target: T2, DHS2^WT; details: shown previously; cited from earlier work
DHS3 (DHS^WT isoform) [7] = details: shown previously; cited from earlier work
DHS1^B4 = assay: DHS enzyme assay, DHS1 with the sotaB4 mutation; assay type: biochemical, Arabidopsis thaliana; details: comparable IC50 values to DHS1^WT
DHS1^WT [8] = biological target: T1, DHS1^WT; details: shown previously; cited from earlier work
[9] = ILA feeding, media with 0, 250, 500 or 1000 μM, 3-week-old plants, fresh weight

T1 sequence (P29976 49-525): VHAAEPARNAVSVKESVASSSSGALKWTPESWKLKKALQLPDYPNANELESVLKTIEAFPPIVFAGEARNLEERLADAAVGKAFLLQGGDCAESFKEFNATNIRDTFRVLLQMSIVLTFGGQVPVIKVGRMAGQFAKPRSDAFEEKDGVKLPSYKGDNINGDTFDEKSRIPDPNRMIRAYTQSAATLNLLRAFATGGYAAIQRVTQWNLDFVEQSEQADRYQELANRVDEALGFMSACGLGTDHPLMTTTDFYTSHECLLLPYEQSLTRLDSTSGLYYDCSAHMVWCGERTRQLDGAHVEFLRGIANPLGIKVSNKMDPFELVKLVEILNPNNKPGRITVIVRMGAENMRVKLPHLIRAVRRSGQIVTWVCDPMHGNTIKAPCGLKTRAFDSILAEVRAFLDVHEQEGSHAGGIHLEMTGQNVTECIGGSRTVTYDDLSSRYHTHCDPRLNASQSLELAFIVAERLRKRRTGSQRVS
T2 sequence (Q00218 34-507): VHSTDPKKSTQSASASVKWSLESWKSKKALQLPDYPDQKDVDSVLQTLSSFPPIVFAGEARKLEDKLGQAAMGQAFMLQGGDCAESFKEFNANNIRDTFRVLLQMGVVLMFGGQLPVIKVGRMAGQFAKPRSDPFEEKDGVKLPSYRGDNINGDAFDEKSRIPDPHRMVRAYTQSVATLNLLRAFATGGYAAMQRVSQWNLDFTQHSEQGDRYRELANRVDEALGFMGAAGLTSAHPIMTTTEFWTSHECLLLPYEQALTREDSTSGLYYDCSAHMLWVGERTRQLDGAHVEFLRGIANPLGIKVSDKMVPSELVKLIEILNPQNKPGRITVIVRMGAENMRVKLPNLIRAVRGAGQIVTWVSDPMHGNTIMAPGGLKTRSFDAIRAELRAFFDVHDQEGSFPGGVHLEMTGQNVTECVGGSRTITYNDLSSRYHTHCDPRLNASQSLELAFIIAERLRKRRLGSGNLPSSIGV

O=C(O)Cc1ccc(O)cc1 [4-hydroxyphenylacetate]
inhibition of DHS1 activity (DHS1^WT [1]): neither

Nc1ccccc1C(=O)[O-].[Na+] [Anthranilate]
inhibition of DHS1 activity (DHS1^WT [1]): did not affect the activity
inhibition of DHS2 activity (DHS2^WT [2]): slight reduction

O=C(O)Cc1cc(O)ccc1O [HGA, homogentisate]
change in IC50 versus corresponding WT enzyme (DHS2^A11): no significant change
pIC50 (DHS1^WT [1]): 3.60 to 4.12
inhibition of DHS1 activity (DHS1^WT [1]): effectively inhibited
inhibition of DHS3 WT activity (DHS3 (DHS^WT isoform) [3]): effectively inhibited
pIC50 (DHS3 (DHS^WT isoform) [3]; recombinant DHS3 WT, varied effector concentrations): 3.60 to 4.12
increase in IC50 versus corresponding WT enzymes [4]: ≤ 12 fold
pIC50 (DHS2^WT [2]): 3.60 to 4.12
inhibition of DHS2 activity (DHS2^WT [2]): effectively inhibited

O=C(O)C(=O)Cc1ccc(O)cc1 [HPP, 4-Hydroxyphenylpyruvate]
change in IC50 versus corresponding WT enzyme (DHS2^A11): no significant change
inhibition of DHS3 WT activity (DHS3 (DHS^WT isoform) [3]): effectively inhibited
increase in IC50 versus corresponding WT enzymes [4]: up to 7 fold

O=C(O)C(O)Cc1c[nH]c2ccccc12 (stereo not shown) [ILA, Indole-3-lactate]
effect on growth of Col-0 WT plants [5, 9]: growth inhibition
growth inhibition in sotaB4 mutant plants versus Col-0 [5, 9]: significantly weakened
inhibition of DHS1 activity (DHS1^WT [1]): reduced the activity
inhibition of DHS2 activity (DHS2^WT [2]): reduced the activity

O=C(O)C(=O)Cc1c[nH]c2ccccc12 [IPA, indole-3-pyruvate]
effect on plant growth ([5]; independent of genotypes, even at very low concentration (<10 μM)): impaired plant growth
pIC50 (DHS1^WT [1]): 3.62
inhibition of DHS1 activity (DHS1^WT [1]): inhibit
pIC50 (DHS2^WT [2]): 4.24
inhibition of DHS2 activity (DHS2^WT [2]): inhibit

O=C(O)C(=O)Cc1ccccc1 [PPY, phenylpyruvate]
inhibition of DHS1 activity (DHS1^WT [1]): neither

N[C@@H](Cc1c[nH]c2ccccc12)C(=O)O [Trp, tryptophan]
inhibition of DHS2^F1 activity (DHS2^F1): not inhibited
inhibition of DHS2^A11 activity (DHS2^A11): not inhibited
inhibition of DHS2^A4 activity (DHS2^A4): not inhibited
inhibition of DHS2 (DHS2^WT [6]): inhibit

N[C@@H](Cc1ccc(O)cc1)C(=O)O [Tyr, L-tyrosine]
inhibition of DHS2^F1 activity (DHS2^F1): not inhibited
inhibition of DHS2^A11 activity (DHS2^A11): not inhibited
inhibition of DHS2^A4 activity (DHS2^A4): not inhibited

OCCc1ccc(O)cc1 [Tyrosol]
inhibition at 1000 µM (DHS2^WT [2]): ~30%

N[C@@H](CC1(C(=O)O)C=CC(O)C=C1)C(=O)O (stereo partly shown) [arogenate]
inhibition of DHS2^A4 (DHS2^A4): still inhibited
inhibition of DHS2 (DHS2^WT [6]): slightly inhibit

O=C(O)/C=C/c1ccc(O)c(O)c1 [caffeate]
inhibition of DHS3 (DHS3 (DHS^WT isoform) [7]): strongly inhibit
inhibition of DHS2^A4 (DHS2^A4): still inhibited
inhibition of DHS1^B4 (DHS1^B4): still strongly inhibited
inhibition of DHS2 (DHS2^WT [6]): strongly inhibit
inhibition of DHS1 (DHS1^WT [8]): strongly inhibit

C=C(O[C@@H]1C=C(C(=O)O)C=C[C@H]1O)C(=O)O [chorismate]
inhibition of DHS3 (DHS3 (DHS^WT isoform) [7]): strongly inhibit
inhibition of DHS2^A4 (DHS2^A4): still inhibited
inhibition of DHS1^B4 (DHS1^B4): still strongly inhibited
inhibition of DHS2 (DHS2^WT [6]): strongly inhibit
inhibition of DHS1 (DHS1^WT [8]): strongly inhibit

c1ccc2[nH]ccc2c1 [indole]
inhibition of DHS1 activity (DHS1^WT [1]): did not affect the activity

O=C(O)C(=O)CC1(C(=O)O)C=CC(O)C=C1 (stereo not shown) [prephenate]
inhibition of DHS2^A4 (DHS2^A4): still inhibited
inhibition of DHS2 (DHS2^WT [6]): slightly inhibit

O=C(O)C1=C[C@@H](O)[C@@H](O)[C@H](O)C1 [shikimate]
inhibition of DHS2^A4 (DHS2^A4): still inhibited
inhibition of DHS2 (DHS2^WT [6]): slightly inhibit

NCCc1c[nH]c2ccccc12 [tryptamine]
inhibition of DHS1 activity (DHS1^WT [1]): did not affect the activity
inhibition of DHS2 activity (DHS2^WT [2]): slight reduction

NCCc1ccc(O)cc1 [tyramine]
inhibition at 1000 µM (DHS2^WT [2]): ~30%
